This note sets out measurements from patent publication US12467085B2, “High accuracy nanopore-based single molecule sequencing by synthesis with tagged nucleotides” (priority 2019, dated 2025).

For orientation: Kd means the equilibrium constant for the complex coming apart.

Phi29-type DNA polymerase, sequence (P03680 whole entry): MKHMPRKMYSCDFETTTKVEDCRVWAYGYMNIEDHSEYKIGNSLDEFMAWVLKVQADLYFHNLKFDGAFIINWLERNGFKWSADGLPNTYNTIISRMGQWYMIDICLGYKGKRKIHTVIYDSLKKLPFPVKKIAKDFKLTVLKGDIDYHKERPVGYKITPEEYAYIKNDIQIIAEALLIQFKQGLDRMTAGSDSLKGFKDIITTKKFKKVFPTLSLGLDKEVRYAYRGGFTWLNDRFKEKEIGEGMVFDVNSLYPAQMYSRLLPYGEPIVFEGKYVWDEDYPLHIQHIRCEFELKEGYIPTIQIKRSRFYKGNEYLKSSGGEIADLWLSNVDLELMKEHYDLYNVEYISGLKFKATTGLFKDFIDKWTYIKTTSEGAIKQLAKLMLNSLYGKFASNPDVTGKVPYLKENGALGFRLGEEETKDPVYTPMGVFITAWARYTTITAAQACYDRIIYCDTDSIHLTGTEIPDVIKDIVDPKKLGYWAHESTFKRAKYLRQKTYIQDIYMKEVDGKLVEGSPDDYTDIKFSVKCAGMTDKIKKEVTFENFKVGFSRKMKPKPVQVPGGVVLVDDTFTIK

The target in one experiment is Phi29-type DNA polymerase (Bacillus phage phi29, UniProt P03680). In words: Dissociation constants of nucleotides with polymerase by fluorescence assays. The conditions noted are these: fluorescence assays; natural and unincorporable nucleotides. Format: binding. From the text:
Disclosed herein is a determination of a number of enzymatic parameters including substrate binding and dissociation constants (examples in Table 1) under a variety of conditions and with a variety of nucleotide analogs (NTPs, N6Ps, tagged N6Ps, α-thio and α,β-methylene nucleotide polyphosphates). In addition to these compounds, disclosed herein are fluorescent nucleotide analogs and unincorporable (α-thio) nucleotides that were designed and synthesized for the polymerase tests to develop new Nanopore-SBS approaches as described below.
In turn, `Nc1nc2c(ncn2C2CC(O)C(COP(O)(=S)OP(=O)(O)OP(=O)(O)O)O2)c(=O)[nH]1` (stereo not drawn) [2′-dGTP-αS (Rp-isomer), 2′-dGTP-αS] had a Kd of 910 nM. `Nc1nc2c(ncn2C2CC(O)C(COP(O)(=S)OP(=O)(O)OP(=O)(O)O)O2)c(=O)[nH]1` (stereo not drawn) [2′-dGTP-αS (Sp-isomer), 2′-dGTP-αS] had a Kd of 6 nM.

Consider `Nc1ccn(C2CC(O)C(COP(=O)(O)CP(=O)(O)OP(=O)(O)O)O2)c(=O)n1` (stereo not drawn) [dCp-CH2-pp, reference compound], for which binding was put at a Kd of 25000 nM.

The compound `Nc1ccn(C2CC(O)C(COP(=O)(O)OP(=O)(O)OP(=O)(O)O)O2)c(=O)n1` (stereo not drawn) [dCTP, reference compound] came in with a Kd of around 5 nM. Same read-out and setting: the value for `Nc1nc2c(ncn2C2CC(O)C(COP(=O)(O)OP(=O)(O)OP(=O)(O)O)O2)c(=O)[nH]1` (stereo not drawn) [dGTP, reference compound] was 6 nM; that for `Nc1ccn(C2CC(O)C(COP(O)(=S)OP(=O)(O)OP(=O)(O)O)O2)c(=O)n1` (stereo not drawn) [2′-dCTP-αS (Rp-isomer), 2′-dCTP-αS] was 750 nM. The compound `Nc1ccn(C2CC(O)C(COP(O)(=S)OP(=O)(O)OP(=O)(O)O)O2)c(=O)n1` (stereo not drawn) [2′-dCTP-αS (Sp-isomer), 2′-dCTP-αS] yielded a Kd of 1 nM.

Still in this experiment, the particulars now being: fluorescence assays; natural and unincorporable nucleotides; read-out: KD.
As to αS-dG6P-N3 [αS-dG6P-N3 (Rp-isomer)], the Kd amounted to 670 nM.

Staying with this experiment, now noted: in words; compared with the other nucleotides.
Turning to `Nc1ccn(C2CC(O)C(COP(=O)(O)CP(=O)(O)OP(=O)(O)O)O2)c(=O)n1` (stereo not drawn) [dCp-CH2-pp, reference compound], the “binding to the polymerase in the ternary complex” value was “do not bind as tightly”.
